Among the data in patent publication US6685617B1, “Inhibitors of α4β1 mediated cell adhesion” (Pharmacia & Upjohn Company, priority 1998, dated 2004) are IC50 values, retold here.

Structures can show the parent of a compound that is named as a salt.

The target of assay [1] is T1, α4β1 integrin (Jurkat T-cell adhesion to IL-1 stimulated endothelial cell monolayers) (Homo sapiens, UniProt P05556+P13612).
T1 construct: a T-cell line, Jurkat, known to express the α4β1 integrin; host or cells: Jurkat T-cell line
T1 sequence (P13612 34-1032): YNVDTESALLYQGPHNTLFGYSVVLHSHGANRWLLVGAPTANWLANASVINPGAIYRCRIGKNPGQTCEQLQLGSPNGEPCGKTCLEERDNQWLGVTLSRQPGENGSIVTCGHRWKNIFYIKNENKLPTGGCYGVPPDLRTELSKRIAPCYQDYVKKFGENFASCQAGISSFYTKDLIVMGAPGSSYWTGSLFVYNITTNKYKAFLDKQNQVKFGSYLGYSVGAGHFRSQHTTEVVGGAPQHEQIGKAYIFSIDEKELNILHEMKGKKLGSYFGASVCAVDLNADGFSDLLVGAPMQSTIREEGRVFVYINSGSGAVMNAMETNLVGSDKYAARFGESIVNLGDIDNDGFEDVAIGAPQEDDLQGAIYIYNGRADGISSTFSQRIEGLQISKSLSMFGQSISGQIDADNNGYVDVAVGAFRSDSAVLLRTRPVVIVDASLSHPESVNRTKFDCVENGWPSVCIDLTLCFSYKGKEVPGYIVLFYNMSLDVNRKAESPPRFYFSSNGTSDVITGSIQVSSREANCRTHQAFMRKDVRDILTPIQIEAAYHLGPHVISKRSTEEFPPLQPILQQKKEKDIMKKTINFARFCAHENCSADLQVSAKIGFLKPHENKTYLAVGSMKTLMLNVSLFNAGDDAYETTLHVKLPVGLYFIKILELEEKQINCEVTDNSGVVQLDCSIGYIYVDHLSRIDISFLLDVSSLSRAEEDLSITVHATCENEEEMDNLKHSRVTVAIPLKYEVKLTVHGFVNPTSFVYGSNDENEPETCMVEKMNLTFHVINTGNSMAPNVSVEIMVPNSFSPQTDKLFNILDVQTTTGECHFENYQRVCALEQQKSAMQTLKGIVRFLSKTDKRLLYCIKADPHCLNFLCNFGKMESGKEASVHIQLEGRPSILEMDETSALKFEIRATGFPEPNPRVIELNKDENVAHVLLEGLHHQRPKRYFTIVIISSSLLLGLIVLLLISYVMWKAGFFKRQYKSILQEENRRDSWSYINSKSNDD
T1 sequence (P05556 21-798): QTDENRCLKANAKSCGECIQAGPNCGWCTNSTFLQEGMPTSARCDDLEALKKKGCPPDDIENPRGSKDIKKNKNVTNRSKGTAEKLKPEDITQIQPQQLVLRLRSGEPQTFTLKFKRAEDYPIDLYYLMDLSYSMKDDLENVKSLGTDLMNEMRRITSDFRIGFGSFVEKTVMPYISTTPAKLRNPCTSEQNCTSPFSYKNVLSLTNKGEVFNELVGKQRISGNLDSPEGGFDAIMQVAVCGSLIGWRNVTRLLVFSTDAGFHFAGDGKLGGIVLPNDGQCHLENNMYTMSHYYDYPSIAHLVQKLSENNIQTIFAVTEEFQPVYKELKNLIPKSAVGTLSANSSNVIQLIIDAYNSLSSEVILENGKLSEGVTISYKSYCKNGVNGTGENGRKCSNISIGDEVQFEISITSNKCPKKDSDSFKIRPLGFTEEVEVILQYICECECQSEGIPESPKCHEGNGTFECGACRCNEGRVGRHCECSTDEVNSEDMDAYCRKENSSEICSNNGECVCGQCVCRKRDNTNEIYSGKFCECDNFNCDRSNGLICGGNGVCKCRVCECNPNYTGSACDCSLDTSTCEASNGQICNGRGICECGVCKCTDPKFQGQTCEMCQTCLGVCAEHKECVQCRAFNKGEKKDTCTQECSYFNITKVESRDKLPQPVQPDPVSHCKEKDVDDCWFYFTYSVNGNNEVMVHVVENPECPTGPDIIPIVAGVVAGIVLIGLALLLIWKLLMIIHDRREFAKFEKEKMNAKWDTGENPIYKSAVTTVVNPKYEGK
In words: Jurkat-endothelial cell adhesion assay (Jurkat EC). It counts as cell-based. Conditions: Jurkat cells on IL-1 stimulated human umbilical vein endothelial cells; read-out: JK/EC (Jurkat EC Assay IC50 value range). The method, boiled down: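 BCECF-AM-labelled Jurkat cells were mixed with compound, generally 100, 20, 5 and 1.25 μM, and added to HUVEC monolayers (passage ≤6) pre-stimulated 4 hr at 37° C with 0.1 ng/ml IL-1. After 5 min on ice and 20 min at 37° C, washed wells were read by fluorescence as % adhesion relative to no compound.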

Assay [2] addresses T2, α4β1 integrin (Jurkat cell adhesion to immobilized CS-1 derived peptide CLHPGEILDVPST) (Homo sapiens, UniProt P05556+P13612).
T2 construct: 100 μl of Jurkat cells (2.5×10^6 cells/ml) in DMEM plus BSA; host or cells: Jurkat T-cell line
Description: Jurkat-CS-1 assay. It counts as cell-based. Conditions: Jurkat cells on CS-1 peptide coated plates; read-out: JK/CS-1 (Jurkat CS-1 Assay IC50 value range). The essentials:
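CS-1 peptide was SPDP-crosslinked onto HSA-coated plates and blocked with BSA. Jurkat cells (2.5×10^6 cells/ml) in DMEM/BSA were mixed with compound, generally at 100, 20, 5 and 1.25 μM, and allowed to adhere for 1 hr at 37° C. Bound cells were fixed, stained with toluidine blue and quantified by OD590.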

T2 sequence (P13612 34-1032): as the sequence (P13612 34-1032) above
T2 sequence (P05556 21-798): as the sequence (P05556 21-798) above

Consider `O=C(Nc1ccc(C[C@H](NC(=O)[C@@H]2CSCCN2)C(=O)O)cc1)c1c(Cl)cccc1Cl` [Example 101, 4-[(2,6-Dichlorobenzoyl)amino]-N-[[(3R)-3-thiomorpholinyl]carbonyl]-L-phenylalanine Monohydrochloride], for which the results for the IC50 in assay [1] and in assay [2] were 250 to 1000 nM and 50 to 750 nM, respectively.

Take `COC(=O)[C@H](Cc1ccc(NC(=O)c2c(Cl)cccc2Cl)cc1)NC(=O)[C@@H]1CSCCN1C(=O)CCc1nnn[nH]1` [Example 102, 4-[(2,6-Dichlorobenzoyl)amino]-N-[[(3R)-4-[1-oxo-3-(1H-tetrazol-5-yl)propyl]-3-thiomorpholinyl]carbonyl]-L-phenylalanine Methyl Ester]: the results for the IC50 in assay [1] and in assay [2] were at least 1000 nM and at least 750 nM, respectively.

As to `O=C(Nc1ccc(C[C@H](NC(=O)[C@@H]2CSCCN2C(=O)CCc2nnn[nH]2)C(=O)O)cc1)c1c(Cl)cccc1Cl` [Example 103, 4-[(2,6-Dichlorobenzoyl)amino]-N-[[(3R)-4-[1-oxo-3-(1H-tetrazol-5-yl)propyl]-3-thiomorpholinyl]-carbonyl]-L-phenylalanine], the figures for the IC50 in assay [1] and in assay [2] were 250 to 1000 nM and at most 50 nM, respectively.

As for `N#CCCC(=O)N1CCSC[C@H]1C(=O)N[C@@H](Cc1ccc(NC(=O)c2c(Cl)cccc2Cl)cc1)C(=O)O` [Example 104, N-[[(3R)-4-(3-Cyano-1-oxopropyl)-3-thiomorpholinyl]carbonyl]-4-[[2,6-dichlorobenzoyl)amino]-L-phenylalanine], the IC50 in assay [1] is at least 1000 nM; in assay [2], 50 to 750 nM.

As to `CN1C(=O)CCC1(CCC(=O)O)CCC(=O)N[C@@H](Cc1ccc(OCc2c(Cl)cccc2Cl)cc1)C(=O)O` (stereo partly drawn) [Example 107, 2-[3-[[(1S)-1-Carboxy-2-[4-[(2,6-dichlorophenyl)methoxy]phenyl]ethyl]amino]-3-oxo-propyl]-1-methyl-5-oxo-2-pyrrolidinepropanoic Acid], the IC50 in assay [1] was at least 1000 nM; in assay [2] it was 50 to 750 nM.

Regarding `CC(C)=CCN1C(=O)CCC1(CCC(=O)O)CCC(=O)N[C@@H](Cc1ccc(OCc2c(Cl)cccc2Cl)cc1)C(=O)O` (stereo partly drawn) [Example 109, 2-[3-[[(1S)-1-Carboxy-2-[4-[(2,6-dichlorophenyl)methoxy]phenyl]ethyl]amino]-3-oxo-propyl]-1-(3-methyl-2-butenyl)-5-oxo-2-pyrrolidinepropanoic Acid], the IC50 is at least 1000 nM in assay [1] and at least 750 nM in assay [2].

Consider `CN1C(=O)CCC1(CCC(=O)O)CCC(=O)N[C@@H](Cc1ccc(NC(=O)c2c(Cl)cccc2Cl)cc1)C(=O)O` (stereo partly drawn) [Example 111, 2-[3-[[(1S)-1-Carboxy-2-[4-[(2,6-dichlorobenzoyl)amino]phenyl]ethyl]amino]-3-oxo-propyl]-1-methyl-5-oxo-2-pyrrolidinepropanoic Acid], for which the IC50 in assay [1] lay within 250 to 1000 nM; in assay [2], 50 to 750 nM.

Regarding `O=C(O)CCC1(CCC(=O)N[C@@H](Cc2ccc(OCc3c(Cl)cccc3Cl)cc2)C(=O)O)CCC(=O)N1` (stereo partly drawn) [Example 113, 2-[3-[[(1S)-1-Carboxy-2-[4-[(2,6-dichlorophenyl)methoxy]phenyl]ethyl]amino]-3-oxo-propyl]-5-oxo-2-pyrrolidinepropanoic Acid], the IC50 in assay [1] was at least 1000 nM; in assay [2] it was 50 to 750 nM.

Regarding `COC(=O)CCC1(CCC(=O)N[C@@H](Cc2ccc(NC(=O)c3c(Cl)cccc3Cl)cc2)C(=O)OC)CCC(=O)N1` (stereo partly drawn) [Example 114, 2-[3-[[(1S)-1-[[4-[(2,6-Dichlorobenzoyl)amino]phenyl]methyl]-2-methoxy-2-oxoethyl]amino]-3-oxopropyl]-5-oxo-2-pyrrolidinepropanoic Acid Methyl Ester], the IC50 in assay [1] is at least 1000 nM; in assay [2], at least 750 nM.

Take `O=C(O)CCC1(CCC(=O)N[C@@H](Cc2ccc(NC(=O)c3c(Cl)cccc3Cl)cc2)C(=O)O)CCC(=O)N1` (some centres unmarked) [Example 115]: the IC50 in assay [1] is at least 1000 nM; in assay [2], 50 to 750 nM.
